Measurements from patent US20240245673A1, “Papain-like protease (PLpro) inhibitors” (Pfizer Inc., priority 2022, published 2024).
Read-outs that look alike come from different tables or passages of the source.

Target: SARS-CoV-2 Papain like protease (PLpro) (Severe acute respiratory syndrome coronavirus 2 (2019-nCoV) (SARS-CoV-2), UniProt P0DTD1)
Experiment: Papain Like Protease (PLpro) biochemical assay with profluorogenic substrate Z-RLRGG-AMC
Settings: SARS-CoV-2 PLpro 6.25 nM, 25 μM Z-RLRGG-AMC substrate, 60 minute reaction

| Structure (SMILES) | IC50 (read-out: IC50) | IC50 (IC50 (μM)) |
| --- | --- | --- |
| Cc1cc(CC(=O)N(C)C)ccc1C(=O)N[C@H](C)c1cc(-c2cnn(C)c2)nc2ccccc12 [Example 260, (R)-4-(2-(dimethylamino)-2-oxoethyl)-2-methyl-N-(1-(2-(1-methyl-1H-pyrazol-4-yl)quinolin-4-yl)ethyl)benzamide] | 0.244 µM | – |
| Cc1ccc(N2CC3CNCC3C2)cc1C(=O)N[C@H](C)c1cc(-c2cnn(C)c2)nc2ccccc12 (stereo partly shown) [Example 261] | 0.021 µM | – |
| Cc1ccc(N2CC3CN(C)CC3C2)cc1C(=O)N[C@H](C)c1cc(-c2cnn(C)c2)nc2ccccc12 (stereo partly drawn) [Example 262, 2-methyl-N-((R)-1-(2-(1-methyl-1H-pyrazol-4-yl)quinolin-4-yl)ethyl)-5-(5-methylhexahydropyrrolo[3,4-c]pyrrol-2(1H)-yl)benzamide] | 0.008 µM | – |
| COC(=O)c1cc(-c2cc([C@@H](C)NC(=O)c3cc(CN)ccc3C)c3ccccc3n2)n(C)c1 [Example 263, methyl(R)-5-(4-(1-(5-(aminomethyl)-2-methylbenzamido)ethyl)quinolin-2-yl)-1-methyl-1H-pyrrole-3-carboxylate] | 0.231 µM | – |
| Cc1cc(CN(C)C(=O)c2cscn2)ccc1C(=O)N[C@H](C)c1cc(-c2cnn(C)c2)nc2ccccc12 [Example 264, (R)-N-methyl-N-(3-methyl-4-((1-(2-(1-methyl-1H-pyrazol-4-yl)quinolin-4-yl)ethyl)carbamoyl)benzyl)thiazole-4-carboxamide] | 0.022 µM | – |
| Cc1cc(CN(C)C(=O)c2ncc[nH]2)ccc1C(=O)N[C@H](C)c1cc(-c2cnn(C)c2)nc2ccccc12 [Example 265, (R)-N-methyl-N-(3-methyl-4-((1-(2-(1-methyl-1H-pyrazol-4-yl)quinolin-4-yl)ethyl)carbamoyl)benzyl)-1H-imidazole-2-carboxamide] | 0.14 µM | – |
| Cc1cc(CN(C)Cc2cscn2)ccc1C(=O)N[C@H](C)c1cc(-c2cnn(C)c2)nc2ccccc12 [Example 266, (R)-2-methyl-4-((methyl(thiazol-4-ylmethyl)amino)methyl)-N-(1-(2-(1-methyl-1H-pyrazol-4-yl)quinolin-4-yl)ethyl)benzamide] | 0.024 µM | – |
| CC(=O)N(Cc1ccc(C(=O)N[C@H](C)c2cc(-c3cnn(C)c3)nc3ccccc23)c(C)c1)Cc1cscn1 [Example 267, (R)-2-methyl-N-(1-(2-(1-methyl-1H-pyrazol-4-yl)quinolin-4-yl)ethyl)-4-((N-(thiazol-4-ylmethyl)acetamido)methyl)benzamide] | 0.21 µM | – |
| Cc1cc(CN(Cc2cscn2)S(C)(=O)=O)ccc1C(=O)N[C@H](C)c1cc(-c2cnn(C)c2)nc2ccccc12 [Example 268, (R)-2-methyl-N-(1-(2-(1-methyl-1H-pyrazol-4-yl)quinolin-4-yl)ethyl)-4-((N-(thiazol-4-ylmethyl)methylsulfonamido)methyl)benzamide] | 0.139 µM | – |
| Cc1cc(C(C)NC(=O)c2cscn2)ccc1C(=O)N[C@H](C)c1cc(-c2cnn(C)c2)nc2ccccc12 (stereo partly drawn) [Example 269, N-(1-(3-methyl-4-(((R)-1-(2-(1-methyl-1H-pyrazol-4-yl)quinolin-4-yl)ethyl)carbamoyl)phenyl)ethyl)thiazole-4-carboxamide] | 0.041 µM | – |
| Cc1cc(C(C)NC(=O)c2ncc[nH]2)ccc1C(=O)N[C@H](C)c1cc(-c2cnn(C)c2)nc2ccccc12 (stereo partly drawn) [Example 270, N-(1-(3-methyl-4-(((R)-1-(2-(1-methyl-1H-pyrazol-4-yl)quinolin-4-yl)ethyl)carbamoyl)phenyl)ethyl)-1H-imidazole-2-carboxamide] | 0.037 µM | – |
| Cc1cc(C(=O)NCc2nccn2C)ccc1C(=O)N[C@H](C)c1cc(-c2cnn(C)c2)nc2ccccc12 [Example 271] | 0.005 µM | – |
| Cc1cc(COCc2cscn2)ccc1C(=O)N[C@H](C)c1cc(-c2cnn(C)c2)nc2ccccc12 [Example 274, (R)-2-methyl-N-(1-(2-(1-methyl-1H-pyrazol-4-yl)quinolin-4-yl)ethyl)-4-((thiazol-4-ylmethoxy)methyl)benzamide] | – | 0.002 µM |
| Cc1ccc(N2CCNCC2)cc1C(=O)NC1(c2cc(-c3ccc(C(=O)N(C)C)[nH]3)cc3ccccc23)CC1 [Example 276, N,N-dimethyl-5-(4-(1-(2-methyl-5-(piperazin-1-yl)benzamido)cyclopropyl)naphthalen-2-yl)-1H-pyrrole-2-carboxamide] | 0.003 µM | – |
| Cc1ccc(N2CCN(C)CC2)cc1C(=O)NC1(c2cc(-c3cc(C(=O)N(C)C)c[nH]3)cc3ccccc23)CC1 [Example 277, N,N-dimethyl-5-(4-(1-(2-methyl-5-(4-methylpiperazin-1-yl)benzamido)cyclopropyl)naphthalen-2-yl)-1H-pyrrole-3-carboxamide] | 0.002 µM | – |
| Cc1cc(CSCc2nccn2C)ccc1C(=O)N[C@H](C)c1cc(-c2cnn(C)c2)nc2ccccc12 [Example 282, (R)-2-methyl-4-((((1-methyl-1H-imidazol-2-yl)methyl)thio)methyl)-N-(1-(2-(1-methyl-1H-pyrazol-4-yl)quinolin-4-yl)ethyl)benzamide] | 0.006 µM | – |

| Structure (SMILES) | IC50 (read-out: IC50) | IC50 (IC50 (μM)) |
| --- | --- | --- |
| Cc1cc(C[S+]([O-])Cc2nccn2C)ccc1C(=O)N[C@H](C)c1cc(-c2cnn(C)c2)nc2ccccc12 (stereo partly drawn) [Example 283, 2-methyl-4-((((1-methyl-1H-imidazol-2-yl)methyl)sulfinyl)methyl)-N—((R)-1-(2-(1-methyl-1H-pyrazol-4-yl)quinolin-4-yl)ethyl)benzamide] | 0.005 µM | – |
| Cc1cnc(N2CC3CCC2CN3)cc1C(=O)NC1(c2cc(-c3cnn(C)c3)nc3ccccc23)CC1 (stereo not shown) [Example 284, 2-(2,5-diazabicyclo[2.2.2]octan-2-yl)-5-methyl-N-(1-(2-(1-methyl-1H-pyrazol-4-yl)quinolin-4-yl)cyclopropyl)isonicotinamide] | 0.006 µM | – |
| Cc1cnc(N2CC3CCC(C2)N3)cc1C(=O)NC1(c2cc(-c3cnn(C)c3)nc3ccccc23)CC1 [Example 285, 2-(3,8-diazabicyclo[3.2.1]octan-3-yl)-5-methyl-N-(1-(2-(1-methyl-1H-pyrazol-4-yl)quinolin-4-yl)cyclopropyl)isonicotinamide] | – | 0.003 µM |
| Cc1cnc(N2CC3CCC(C2)N3C)cc1C(=O)NC1(c2cc(-c3cnn(C)c3)nc3ccccc23)CC1 [Example 287, 5-methyl-N-(1-(2-(1-methyl-1H-pyrazol-4-yl)quinolin-4-yl)cyclopropyl)-2-(8-methyl-3,8-diazabicyclo[3.2.1]octan-3-yl)isonicotinamide] | – | 0.002 µM |
| Cc1ccc(N2CC3CC(C2)N3)cc1C(=O)NC1(c2cc(-c3cnn(C)c3)nc3ccccc23)CC1 [Example 289, 5-(3,6-diazabicyclo[3.1.1]heptan-3-yl)-2-methyl-N-(1-(2-(1-methyl-1H-pyrazol-4-yl)quinolin-4-yl)cyclopropyl)benzamide] | – | 0.001 µM |
| Cc1ccc(N2CC3CC(C2)N3C)cc1C(=O)NC1(c2cc(-c3cnn(C)c3)nc3ccccc23)CC1 [Example 290, 2-methyl-N-(1-(2-(1-methyl-1H-pyrazol-4-yl)quinolin-4-yl)cyclopropyl)-5-(6-methyl-3,6-diazabicyclo[3.1.1]heptan-3-yl)benzamide] | – | 0.001 µM |
| Cc1cc(COCc2nccn2C)ccc1C(=O)N[C@H](C)c1cc(-c2cnn(C)c2)nc2ccccc12 [Example 291, (R)-2-methyl-4-(((1-methyl-1H-imidazol-2-yl)methoxy)methyl)-N-(1-(2-(1-methyl-1H-pyrazol-4-yl)quinolin-4-yl)ethyl)benzamide] | 0.001 µM | – |
| Cc1ccc(N2CCN(C)CC2)cc1C(=O)NC1(c2cc(-c3ccc(C(=O)N(C)C)[nH]3)cc3ccccc23)CC1 [Example 292, N,N-dimethyl-5-(4-(1-(2-methyl-5-(4-methylpiperazin-1-yl)benzamido)cyclopropyl)naphthalen-2-yl)-1H-pyrrole-2-carboxamide] | < 0.001 µM | – |
| Cc1cc(CC(=O)Nc2ncsc2C)ccc1C(=O)N[C@H](C)c1cc(-c2cnn(C)c2)nc2ccccc12 [Example 298, (R)-2-methyl-N-(1-(2-(1-methyl-1H-pyrazol-4-yl)quinolin-4-yl)ethyl)-4-(2-((5-methylthiazol-4-yl)amino)-2-oxoethyl)benzamide] | < 0.001 µM | – |
| Cc1cc(C(O)C(=O)Nc2cscn2)ccc1C(=O)N[C@H](C)c1cc(-c2cnn(C)c2)nc2ccccc12 (stereo partly drawn) [Example 301, 4-(1-hydroxy-2-oxo-2-(thiazol-4-ylamino)ethyl)-2-methyl-N-((R)-1-(2-(1-methyl-1H-pyrazol-4-yl)quinolin-4-yl)ethyl)benzamide] | 0.001 µM | – |
| Cc1cc(C(NCc2cscn2)C(F)(F)F)ccc1C(=O)N[C@H](C)c1cc(-c2cnn(C)c2)nc2ccccc12 (stereo partly drawn) [Example 310, 2-methyl-N-((R)-1-(2-(1-methyl-1H-pyrazol-4-yl)quinolin-4-yl)ethyl)-4-(2,2,2-trifluoro-1-((thiazol-4-ylmethyl)amino)ethyl)benzamide] | 0.003 µM | – |
| Cc1cc(CC(=O)Nc2cscn2)ccc1C(=O)NC1(c2cc(-c3cnn(C)c3)nc3ccccc23)CC1 [Example 313, 2-methyl-N-(1-(2-(1-methyl-1H-pyrazol-4-yl)quinolin-4-yl)cyclopropyl)-4-(2-oxo-2-(thiazol-4-ylamino)ethyl)benzamide] | 0.004 µM | – |
| Cc1cc(C(=O)NC2(c3cscn3)CC2)ccc1C(=O)N[C@H](C)c1cc(-c2cnn(C)c2)nc2ccccc12 [Example 314, (R)-2-methyl-N1-(1-(2-(1-methyl-1H-pyrazol-4-yl)quinolin-4-yl)ethyl)-N4-(1-(thiazol-4-yl)cyclopropyl)terephthalamide] | 0.002 µM | – |
| Cc1cc(C(=O)NCc2ncoc2C)ccc1C(=O)N[C@H](C)c1cc(-c2cnn(C)c2)nc2ccccc12 [Example 317, (R)-2-methyl-N1-(1-(2-(1-methyl-1H-pyrazol-4-yl)quinolin-4-yl)ethyl)-N4-((5-methyloxazol-4-yl)methyl)terephthalamide] | 0.006 µM | – |
| Cc1cc(C(C)OCc2cscn2)ncc1C(=O)N[C@H](C)c1cc(-c2cnn(C)c2)nc2ccccc12 (stereo partly drawn) [Example 321, 4-methyl-N—((R)-1-(2-(1-methyl-1H-pyrazol-4-yl)quinolin-4-yl)ethyl)-6-(1-(thiazol-4-ylmethoxy)ethyl)nicotinamide] | 0.003 µM | – |
